# Measured values published in patent US20170105979A1, “USE OF A TORASEMIDE-BASED VETERINARY COMPOSITION FOR LOW-DOSE ADMINISTERING” (VIRBAC, priority 2014, published 2017).
# Read-outs that look alike come from different tables or passages of the source.
# Key:
# [1] = urine volume over 24 h in treated healthy dogs; type: in vivo, female Beagle dogs; details: FIG. 3
# Method: (§1) Several criteria were evaluated in order to determine the efficacy of this dosage: • urine volume • water consumption • urinary sodium clearance • urinary potassium clearance • osmolar clearance • free-water clearance • urinary fraction excretion of sodium • urinary fraction excretion of potassium. […] The following measurements are carried out: • →urine: volume, pH, creatinine, osmolarity, sodium, potassium; • →plasma: sodium, potassium, urea, aldosterone.
# [2] = water consumption over 24 h in treated healthy dogs; type: in vivo, female Beagle dogs; details: FIG. 4
# Method: as §1
# [3] = single administration, healthy rats and dogs; cited from earlier work
# [4] = prolonged treatments of 14 days; torasemide 0.4 mg/kg/day; cited from earlier work
# [5] = cited from earlier work
# [6] = 7 days, cited from earlier work; for clinical state of the disease: furosemide 5.13 mg/kg/day or torasemide 0.5 mg/kg/day, oral twice-daily
# [7] = urinary sodium clearance in healthy female Beagle dogs; type: in vivo
# Method: Several criteria were evaluated in order to determine the efficacy of this dosage: • urine volume • water consumption • urinary sodium clearance • urinary potassium clearance • osmolar clearance • free-water clearance • urinary fraction excretion of sodium • urinary fraction excretion of potassium. […] The following measurements are carried out: • →urine: volume, pH, creatinine, osmolarity, sodium, potassium; • →plasma: sodium, potassium, urea, aldosterone. In this experiment, torasemide is tested at two single doses: 0.05 mg/kg or 0.5 mg/kg for a daily administration for three weeks. The continuous administration of diuretics causes a net deficit of sodium ions in the body, but renal compensation mechanisms adjust sodium excretion in line with sodium intake. This phenomenon is known as “diuretic braking”. […] In the experimental studies described above, carried out on healthy dogs, the modification of urinary sodium excretion by torasemide is evaluated by calculating urinary sodium clearance according to the following equation: Urinary sodium concentration×total urine volume/plasma sodium concentration
# [8] = urinary potassium clearance in treated healthy dogs; type: in vivo, female Beagle dogs; details: first day of treatment, low-dose torasemide compared with other treatments; FIG. 5
# Method: as §1, with “aldosterone. The excretion of potassium ions in the urine of the treated dogs was measured over a period of 24 hours, and is presented in FIG. 5.” for “aldosterone.”
# [9] = plasma creatinine and creatinine clearance (innocuousness); type: in vivo, female Beagle dogs; details: torasemide 0.05 mg/kg/day
# Method: Other criteria were evaluated in order to determine the safety of this dosage: • plasma creatinine • creatinine clearance • plasma urea • plasma aldosterone. […] The following measurements are carried out: • →urine: volume, pH, creatinine, osmolarity, sodium, potassium; • →plasma: sodium, potassium, urea, aldosterone.
# [10] = plasma urea concentration (innocuousness); type: in vivo, female Beagle dogs; details: FIG. 7
# [11] = plasma aldosterone concentration (innocuousness); type: in vivo, female Beagle dogs; details: FIG. 8
# [12] = urinary fractional excretion of sodium (FENa) in healthy dogs; type: in vivo, female Beagle dogs; details: single (0.05 or 0.5 mg/kg) and repeated administrations for three weeks; FIGS. 9 and 10
# From the text: One of the solutions for making the link between clinical and experimental is the calculation of the fractional excretion of sodium. This value is the ratio of the urinary sodium clearance to the urinary creatinine clearance. It requires assaying the creatinine in the plasma and in the urine, and also assaying the sodium in the plasma and the urine also, which is entirely envisionable “in the field”. This fractional excretion of sodium (FENa) represents the percentage of sodium filtered by the kidney that is finally excreted in the urine. It is determined using equation 1 below: where Naurine and […] are the sodium concentrations in the urine and the plasma, respectively, and Creatinineplasma and Creatinineurine are the creatinine concentrations in the plasma and the urine, respectively. The fractional excretion of sodium is the sodium excretion divided by the glomerular filtration rate (GFR), the GFR being estimated by the creatinine clearance.
# [13] = 0.2 mg/kg/day in the morning for 28 days, dogs with congestive heart failure; cited from earlier work
# [14] = high dose of torasemide (0.5 mg/kg/day), D18 and D28
# [15] = low dose of torasemide (0.05 mg/kg/day)
compound,measurement,setting,value
NS(=O)(=O)c1cc(C(=O)O)c(NCc2ccco2)cc1Cl [furosemide],urine volume,"[1]; furosemide 5 mg/kg/day, from first day (D7), maintained over three weeks",clear increase
same,water consumption over a period of 24 h,"[2]; furosemide 5 mg/kg/day, especially D18 and D28",clear increase
same,dose-effect relationship for diuretic effect and ion secretion,[3],relationship between the dose administered and the size of the diuretic effect and of the ion secretion
same,diuretic resistance,[4],develop “diuretic resistance”
same,time after administration at which the diuretic effect decreases,[5]; furosemide,6 h
same,time after administration at which the diuretic effect appears,[5]; torasemide 0.2 mg/kg,approximately 1 hours
same,clinical state of the disease,[6],maintain the disease in a stable state
"Cc1cccc(Nc2ccncc2S(=O)(=O)NC(=O)NC(C)C)c1 [torasemide, N-[(isopropyl-amino)carbonyl]-4-[(3-methylphenyl)amino]pyridine-3-sulfonamide]",diuretic braking effect,"[7]; dogs in good health, single dose of 0.5 mg/kg",occurs
same,net effect over the course of 24 hours on urinary sodium clearance,"[7]; repeated administrations, high dose of torasemide 0.5 mg/kg/day, FIG. 2",no net effect
same,effect on urinary sodium clearance,"[7]; repeated administrations, low dose of torasemide 0.05 mg/kg, D7, D18, D28, FIG. 2",effect that was clearly visible
same,overall effect on sodium clearance over the course of 24 hours,"[7]; single dose, low dose 0.05 mg/kg compared with high dose 0.5 mg/kg, FIG. 1",higher than the overall effect of the high dose of torasemide (0.5 mg/kg)
same,urine volume,"[1]; torasemide 0.05 mg/kg/day, D7, D18, D28",do not show any change
same,urine volume,"[1]; torasemide 0.5 mg/kg/day, from first day (D7), maintained over three weeks",clear increase
same,water consumption over a period of 24 h,[2]; torasemide 0.05 mg/kg/day,only a small change
same,water consumption over a period of 24 h,"[2]; torasemide 0.5 mg/kg/day, especially D18 and D28",clear increase
same,effect on potassium ion excretion in the urine,[8],lower than with the other treatments
same,plasma creatinine concentration,[9]; whatever the day of the sample,no effect
same,creatinine clearance,[9]; FIG. 6,no effect
same,plasma urea concentration,[10]; [14],increase
same,increase in plasma urea concentration,[10]; [15],not observed
same,plasma aldosterone concentration,[11]; [14],increase
same,increase in plasma aldosterone concentration,[11]; [15],not observed
same,fractional excretion of sodium,[12],in agreement with those obtained by directly measuring the urinary sodium clearance
same,dose-effect relationship for diuretic effect and ion secretion,[3],relationship between the dose administered and the size of the diuretic effect and of the ion secretion
same,diuretic resistance,[4],this resistance does not occur
same,plasma creatinine concentrations,[4],increase in plasma creatinine concentrations
same,potassium excretion in the urine,"[5]; sick dogs, after 7 days, compared with furosemide",less than that observed for the dogs treated with furosemide
same,persistence of the diuretic effect,[5]; torasemide 0.2 mg/kg,12 h
same,potassium excretion in the urine,[13],increased
same,sodium excretion,[13],not increased
same,clinical state of the disease,[6],maintain the disease in a stable state
same,diuretic effect compared with furosemide,[6]; torasemide 0.5 mg/kg/day vs furosemide 5.13 mg/kg/day,better diuretic effect
